Reference: patent publication US20220227796A1, “EGFR INHIBITORS, COMPOSITIONS AND METHODS THERE OF” (Betta Pharmaceuticals Co., Ltd., priority 2019, published 2022)
Where two headings read alike, the source gives them in different places.

How the values were obtained:
H1975(L858R/T790M) = test: H1975 cells proliferation assay; type: cell-based; details: for IC50: Homo sapiens, read-out: H1975 IC50
Method: (§1) Test 3 H1975 and HCC827 Cells Proliferation Assay
(§2) a) The medium was preheated in a 37° C. water bath in advance.
(§3) b) Remove the cryogenic vials from the liquid nitrogen tank, quickly put it into a 37° C. water bath, and completely melt it in 1 min.
(§4) c) Transfer the cell suspension to a 15 mL centrifuge tube containing 8 mL medium, centrifuge 1000 rpm, 5 min.
(§5) d) Discard the supernatant, resuspend the cells in 1 mL medium, and transfer to a 75 cm^2 flask containing 15 mL medium, culture the cells in an incubator at 37° C., 5% CO2.
(§6) b) Collect cell to a 15 mL centrifuged tube, centrifuge at 1000 rpm for 5 min. Discard the supernatant, count, and make the cell density at 1×10^4 cells/mL, then place it in a 37° C., 5% CO2 incubator.
(§7) b) The above compound solution was diluted 1:20 times with culture medium to prepare a 10 fold working solution;
(§8) a) Take cells in log phase growth, centrifuge at 1000 rpm for 5 min, then resuspend the cells with culture medium, then count cells;
(§9) b) Cells were seeded to 96-well cell culture plate with density at 2000 cells/well (suitable for H1975 cell) and at 2500 cells/well (suitable for HCC827 cell);
(§10) The blank control well was a culture medium (0.5% DMSO);
(§11) b) The cells were incubated for an additional 72 h in the incubator.
(§12) a) Remove the 96-well cell culture plate and add 50 μl of CTG reagent (CellTiter Glo kit, promega, Cat #G7573).
(§13) b) Plate was shaked for 2 min and then let it cool for 10 min at room temperature.
(§14) c) The Luminescence signal value was read using a PerkinElmer reader.
(§15) Experimental Data Analysis
(§16) Data were analyzed using GraphPad Prism 6.0 software to obtain a fitted curve of compound activity.
(§17) Y=Bottom+(Top−Bottom)/(1+10^((Log IC50−X)*HillSlope));
(§18) The cells proliferation assay results are expressed with IC50, shown as Table 2.

HCC827(Δ19del) = test: HCC827 cells proliferation assay; type: cell-based; details: Homo sapiens, read-out: HCC827 IC50
Method: as §1, §2, §3, §4, §5, §6, §7, §8, §9, §10, §11, §12, §13, §14, §15, §16, §17, §18

[1] = NCI-H1975, cell proliferation, 72 h, CellTiter Glo, class symbols
[2] = HCC827, cell proliferation, 72 h, CellTiter Glo, class symbols

Row | Compound | IC50 (H1975(L858R/T790M); [1]) | IC50 (HCC827(Δ19del); [2]) | IC50 (H1975(L858R/T790M); NCI-H1975, 72 h) | inhibition of double mutant (L858R/T790M) (H1975(L858R/T790M); summary in words of Table 2) | IC50 (HCC827(Δ19del); HCC827, 72 h)
1 | C=CC(=O)Nc1cc(Nc2ncc(Br)c(Nc3ccc4nccnc4c3P(C)(C)=O)n2)c(OC)cc1N1CCC(N2CCN(C)CC2)CC1 [Compound 13, N-(5-((5-bromo-4-((5-(dimethylphosphoryl)quinoxalin-6-yl)amino)pyrimidin-2-yl)amino)-4-methoxy-2-(4-(4-methylpiperazin-1-yl)piperidin-1-yl)phenyl)acrylamide] | 0.01 to 0.05 µM | 0.01 to 0.05 µM | – | – | –
2 | C=CC(=O)Nc1cc(Nc2ncc(Cl)c(Nc3ccccc3P(C)(C)=O)n2)c(C)cc1N1CCC2(CC1)CC(N(C)C)C2 [Compound 31, N-(5-((5-chloro-4-((2-(dimethylphosphoryl)phenyl)amino)pyrimidin-2-yl)amino)-2-(2-(dimethylamino)-7-azaspiro[3.5]nonan-7-yl)-4-methylphenyl)acrylamide] | 0.01 to 0.05 µM | 0.01 to 0.05 µM | – | – | –
3 | C=CC(=O)Nc1cc(Nc2nccc(-c3cn(C)c4ccccc34)n2)c(OC)cc1N(C)CCN(C)C [Comparative compound B, reference compound] | – | – | < 0.01 µM | higher inhibition | < 0.01 µM

More lines, main results first:

Row | IC50 (H1975(L858R/T790M); [1]) | IC50 (HCC827(Δ19del); [2]) | Compound | IC50 (H1975(L858R/T790M); NCI-H1975, 72 h) | inhibition of double mutant (L858R/T790M) (H1975(L858R/T790M); summary in words of Table 2) | IC50 (HCC827(Δ19del); HCC827, 72 h)
4 | < 0.01 µM | < 0.01 µM | C=CC(=O)Nc1cc(Nc2ncc(F)c(Nc3ccccc3P(C)(C)=O)n2)c(OC)cc1N(C)CCN(C)C [Compound 27, N-(2-((2-(dimethylamino)ethyl)(methyl)amino)-5-((4-((2-(dimethylphosphoryl)phenyl)amino)-5-fluoropyrimidin-2-yl)amino)-4-methoxyphenyl)acrylamide] | – | – | –
5 | – | < 0.01 µM | C=CC(=O)Nc1cc(Nc2ncc(Cl)c(Nc3ccccc3P(C)(C)=O)n2)c(OC)cc1N(C)CCN(C)C [Compound 25, N-(5-((5-chloro-4-((2-(dimethylphosphoryl)phenyl)amino)pyrimidin-2-yl)amino)-2-((2-(dimethylamino)ethyl)(methyl)amino)-4-methoxyphenyl)acrylamide] | – | – | –
6 | 0.01 to 0.05 µM | < 0.01 µM | C=CC(=O)Nc1cc(Nc2nccc(Nc3ccccc3P(C)(C)=O)n2)c(OC)cc1N(C)CCN(C)C [Compound 39, N-(2-((2-(dimethylamino)ethyl)(methyl)amino)-5-((4-((2-(dimethylphosphoryl)phenyl)amino)pyrimidin-2-yl)amino)-4-methoxyphenyl)acrylamide] | – | – | –
